Reference: patent US20240369536A1, “A CELL BASED TEST TO MONITOR DMARD DRUG RESPONSE” (UNIVERSITY OF ULSTER, priority 2021, published 2024)
Entries after “also recorded” stand apart in the source; their conditions may differ.

Tests used:
[1] = system: CD4+CD25+CD127− Treg cells; assay: ELISA of secreted cytokines (TNFα, IL-10, IFNγ) in conditioned media of Treg cultures; format: cell-based, human; details: PMA relative to controls
Description: (§1) CD4^+CD25^+CD127^− Treg cells were sorted by FACS into phosphate buffered saline (PBS) containing 20% AB serum (Sigma-Aldrich®, UK), then washed and resuspended in serum-free cell culture medium (TexsMACS™ medium; Miltenyi Biotec®, UK), supplemented with 5% AB serum (Sigma-Aldrich®, UK), 1% Penicillin-Streptomycin (Gibco®, Ireland) and human IL-2 (Miltenyi Biotec®, UK). Trypan blue (Sigma-Aldrich®, UK) was used to ensure cell viability after sorting was >90-95%. A human Treg expansion kit (Miltenyi Biotec, UK) was used to induce Treg proliferation in order to expand the population to sufficient cell numbers for experiments. Following 14 days of expansion, Tregs were stimulated with 10 ng/ml phorbol 12-myristate 13-acetate (PMA) (Sigma-Aldrich®, UK) and 500 ng/ml ionomycin (10) (Invitrogen®) for 24 hours. During the same 24-hour stimulation, Tregs were incubated with or without 10 mM sialic acid (Sia) (Sigma-Aldrich®, UK). At baseline, 24 hr and 48 hr time points (Day 0, Day 1 and Day 2), cells were removed from culture and labelled prior to FACS analysis of extracellular markers CD4, CD25, CD127 and CD43, and intracellular markers NFκB and FoxP3. Cell culture conditioned media was retained and analysed for secreted cytokine levels by enzyme-linked immunosorbent assay (ELISA), described below. A preliminary experiment included a Day 2 time-point, however latter experiments were concluded at the Day 1 time-point as this was sufficient to observe Sia treatment effects. […]
Following cell culture experiments, conditioned media were analysed to quantify TNFα, IL-10 and IFN-γ by ELISA using appropriate ELISA reagent kits (DuoSet® ELISA development kits; R&D Systems®, UK) according to the manufacturer's instructions. The optical density (OD) was determined using a spectrophotometer (Epoch™ microplate spectrophotometer; BioTek® Ltd, UK) with appropriate software (Gen5™; BioTek® Ltd, UK). The plate was read at a wavelength of 450 nm and wavelength correction of OD at 540 nm used. […]

[2] = system: CD4+CD25+CD127− Treg cells; assay: FACS analysis of CD4, NFκB and FoxP3 in expanded Tregs stimulated with PMA with or without Sia; format: cell-based, human
Description: PBMCs were labelled with antibodies (Becton Dickinson®, UK) against CD3, CD4, CD25, CD45, CD45RA, CD127 and CD43 antigens according to the manufacturer's instructions to assess relative Treg numbers. When FoxP3 and nuclear factor kappa-light-chain-enhancer of activated B cells (NFκB) antibody labelling was required, cells were pretreated with a lymphocyte membrane permeabilising solution (BD FACS™ Permeabilizing solution 2; Becton Dickinson®, UK). For monocyte analysis, cells were firstly enriched using a pan monocyte isolation kit and benchtop magnetic cell sorting device (autoMACS Pro separator; Miltenyi Biotec®). Enriched monocytes were labelled with antibodies (Becton Dickinson®, UK) against CD14, CD16 and CD169 antigens. Cell populations were analysed using fluorescence-activated cell sorting (FACS) in a flow cytometer with sorting capability (FACSAria™ III; Becton Dickinson, UK) with appropriate flow cytometer software (BD FACSDiva™ software version 8.0.1; Becton Dickinson, UK). Negative controls including unlabelled cells and isotype matched control antibodies were used to determine gating strategies. The positivity of a specific cell surface marker in labelled samples compared to the negative control was analysed as a percentage of the parent population. The median fluorescence intensity (MFI), indicating cell surface density of a specific marker, was also noted for cell populations. Mann Whitney tests were used to assess the statistical significance of differences between sample groups and graphs depict median values with error bars representing the interquartile range.
as §1, with “At baseline, 24 hr and 48 hr time points (Day 0, Day 1 and Day 2), cells were removed from culture and labelled prior to FACS analysis of extracellular markers CD4, CD25, CD127 and CD43, and intracellular markers NFκB and FoxP3.” left out, “below.” for “below. A preliminary experiment included a Day 2 time-point, however latter experiments were concluded at the Day 1 time-point as this was sufficient to observe Sia treatment effects.”

| Compound | IFNγ levels secreted into media ([1]; Day 1, p<0.01) | levels of IL-10 secreted into media ([1]; Day 1 and Day 2, p<0.05) | levels of TNFα secreted into media ([1]; Day 1 and Day 2, p<0.05) | CD4 cell-surface expression (percentage of CD4 positivity) ([2]; 10 ng/ml PMA + 500 ng/ml ionomycin, compared to CTL cells without stimulation) | percentage of cells with intracellular expression of FoxP3 ([2]; PMA stimulation, both CD43+ and CD43− Tregs, each time point, p<0.01) | percentage of cells with intracellular expression of NFκB ([2]; PMA stimulation, both CD43+ and CD43− Tregs, each time point, p<0.05) | effect on NFκB Tregs ([2]; 10 mM Sia added to PMA-stimulated Tregs, after 2 days) |
| --- | --- | --- | --- | --- | --- | --- | --- |
| CCCCCCCCCCCCCC(=O)O[C@@H]1[C@@H](C)[C@@]2(O)[C@@H](C=C(CO)C[C@]3(O)C(=O)C(C)=C[C@@H]23)[C@@H]2C(C)(C)[C@]12OC(C)=O [PMA, phorbol 12-myristate 13-acetate] | significantly higher | significantly increased | significantly increased | reduced; also recorded: reduction | increased | increased |  |
| CC(=O)N[C@H]1[C@H]([C@H](O)[C@H](O)CO)OC(O)(C(=O)O)C[C@@H]1O (stereo partly shown) [Sia, sialic acid] |  |  |  |  |  |  | no significant effect |
